# B1: dnTGFβRIIvar1: dominant negative TGFβRII variant 1, SEQ ID NO: 305, encoded by SEQ ID NO: 306; lentiviral vector SEQ ID NO: 312 (protein)
# chain: MGRGLLRGLWPLHIVLWTRIASTIPPHVQKSDVEMEAQKDEIICPSCNRTAHPLRHINNDMIVTDNNGAVKFPQLCKFCDVRFSTCDNQKSCMSNCSITSICEKPQEVCVAVWRKNDENITLETVCHDPKLPYHDFILEDAASPKCIMKEKKKPGETFFMCSCSSDECNDNIIFSEEYNTSNPDLLLVIFQVTGISLLPPLGVAISVIIIFYCYRVNRQQKLSS
# modifications: Dominant Negative TGFbetaRII var1 Amino Acid Sequence
# B2: dnTGFβRIIvar2: dominant negative TGFβRII variant 2, SEQ ID NO: 307, encoded by SEQ ID NO: 308; lentiviral vector SEQ ID NO: 313 (protein)
# chain: MGRGLLRGLWPLHIVLWTRIASTIPPHVQKSVNNDMIVTDNNGAVKFPQLCKFCDVRFSTCDNQKSCMSNCSITSICEKPQEVCVAVWRKNDENITLETVCHDPKLPYHDFILEDAASPKCIMKEKKKPGETFFMCSCSSDECNDNIIFSEEYNTSNPDLLLVIFQVTGISLLPPLGVAISVIIIFYCYRVNRQQKLSS
# modifications: Dominant Negative TGFbetaRII var2 Amino Acid Sequence
# Key:
# UACC257-RFP tumor cells = assay: Tumor death assays with TGF-β1/galunisertib and serial tumor challenges (IncuCyte); assay type: cell-based; details: TCR-only effector cells, E:T 5:1; TGF-β1 8 or 128 ng/mL; GAL 5 μM
# Description: Cells prepared as in Example 17 were thawed, washed, and resuspended in TexMACS medium supplemented with 5% by volume human AB serum (“Complete TexMACS”). Benzonase nuclease was added to a concentration of 50 U/mL and the cells were incubated (rested) overnight in tissue culture-treated flasks at 37° C.
# UACC257 tumor cells were harvested using 0.05% trypsin, washed, and counted. Red fluorescent protein (RFP)-labeled tumor cells (“UACC257-RFP”) were plated at 5,000 to 10,000 per well in a flat-bottomed 96-well plate in 100 μL of Complete TexMACS. Plates were placed in an incubator at 37° C. UACC257 cells express high levels of the antigen PRAME (preferentially expressed antigen in melanoma).
# Transduced cells (effector) and tumor cells (target) were co-cultured in 96 well tissue culture plates. Effector/target co-culture plates were placed into an IncuCyte ZOOM imager at 37° C. and 5% CO2 and imaged every 2 hours for the duration of 3 to 12 days. Data was exported from the IncuCyte ZOOM software into Microsoft Excel and GraphPad Prism for further analysis. Fold tumor growth (RFP+ cell count) was normalized to 0 hr timepoint.
# TCR-only transduced cells from one donor (prepared as in Example 17) were co-cultured with UACC257 tumor cells, as described in Example 20, at an effector:target (E:T) ratio of 5:1. […]
# effector T cells = assay: CellTrace proliferation assay of effector T cells co-cultured with UACC257; assay type: cell-based, human; details: TCR-only effector cells, E:T 5:1; TGF-β1 2-128 ng/mL; GAL 5 μM; 3 days
# Description: Transduced cells from one donor (prepared as in Example 17) were thawed, washed, and resuspended in TexMACS medium supplemented with 5% by volume human AB serum (“Complete TexMACS”). Benzonase nuclease was added to a concentration of 50 U/mL and the cells were incubated (rested) overnight in tissue culture-treated flasks at 37° C.
# UACC257 tumor cells were harvested using 0.05% trypsin, washed, and counted. Red fluorescent protein (RFP)-labeled tumor cells were plated at 5,000 tumor cells per well in 100 μL in triplicate in a 96-well plate in Complete TexMACS. Plates were placed in an incubator at 37° C.
# On the day of co-culture, effector T cells were counted, washed, and resuspended in PBS containing a CellTrace Violet proliferation dye at 1:1000 dilution (1 μL dye per mL PBS) and incubated for 20 minutes at 37° C. […]
# Labeled effector T cells were then washed, counted, and resuspended in Complete TexMACS and added in 1 mL per well to previously prepared tumor targets for a total of 2 mL per well at an effector:target (E:T) ratio of 5:1. […]
# UACC257 tumor cells were harvested using 0.05% trypsin, washed, and counted. […]
# On the day of co-culture, cells from two donors prepared and sorted as in Example 19 were counted, washed, and resuspended in PBS containing a CellTrace Violet proliferation dye at 1:1000 dilution (1 μL dye per mL PBS) and incubated for 20 minutes at 37° C. […]
# pSMAD2/3 = assay: Phospho-SMAD intracellular staining assay; assay type: cell-based, human; details: 5 ng/mL TGFβ; vs non-transduced cells
# Description: SMAD is a signal transducer in the TGFβ signaling pathway. SMAD is phosphorylated in response to binding of TGFβ to its receptor and facilitates expression of TGFβ-responsive genes.
# Non-transduced cells and cells expressing dnTGFβvar1 or dnTGFβvar2 (prepared as in Example 17) were thawed and washed in TexMACS medium supplemented with 5% by volume human AB serum (“Complete TexMACS”). They were subsequently resuspended in unsupplemented TexMACS to rest under serum starvation overnight at 37° C. After overnight rest, effector cells were counted and the concentration was adjusted as necessary and 100 μL aliquots were added into a flat-bottomed 96-well tissue culture plate. To avoid stimulating SMAD phosphorylation from the manipulation of cells during counting/plating, cells were further rested about 2 hours in serum-free TexMACS at 37° C.
# After 2 hours, 50 μL of a 3× solution of TGF-β1 (15 ng/mL) and/or GAL (15 μM) was added to the plated effector cells for final 1× concentrations of 5 ng/mL TGF-β1 and/or 5 μM GAL, respectively. For untreated cells, 50 μL of untreated medium was added. […]
# Following permeabilization, cells were washed twice with Flow Buffer (PBS, 1% FBS, 0.1% sodium azide). […] Cytometry data files were analyzed in FlowJo. pSMAD+ percentages were reported as a proportion of all live lymphocytes. […]
Molecule,tumor fold growth of UACC257-RFP cells (UACC257-RFP tumor cells),Division Index / proliferation of effector T cells (effector T cells),percentage of all lymphocytes positive for pSMAD (pSMAD2/3)
"Cc1cccc(-c2nn3c(c2-c2ccnc4ccc(C(N)=O)cc24)CCC3)n1 [GAL, Galunisertib]",rescues or enhances ability of effector cells to kill tumor cells,rescued,
TGF-β1: exogenous cytokine added to co-cultures,reduced the anti-tumor cytotoxicity of the effector cells,suppresses proliferation of effector T cells,
B1,,,reduced phosphorylated SMAD
B2,,,reduced phosphorylated SMAD

# From patent US20230348561A1, “DOMINANT NEGATIVE TGFBETA RECEPTOR POLYPEPTIDES, CD8 POLYPEPTIDES, CELLS, COMPOSITIONS, AND METHODS OF USING THEREOF” (IMMATICS US, INC., priority 2022, published 2023)
